“Also recorded” adds a separate entry of the source. Residues, ends and D or L forms follow the SMILES beside them. *: point of attachment. Cbz = O=C(OCc1ccccc1)*
Key:
Format in all cases: cell-based
Extope-ΔF508 CFTR = test: Immunofluorescence microscopy of externally labeled Extope-ΔF508 CFTR after re-incubation with protease inhibitors; settings: re-incubated at 37° C. for 7 hours
Protocol: FIG. 10B. […] Cell surface Extope-CFTR or Extope-ΔF508 CFTR were labeled with 16B12 as described in FIG. 2A. Cells were re-incubated at 37° C. for 7 hours with either lysosomal inhibitors pepstatin-A and leupeptin (Pep+Leu, each 50 μg/ml) and E64 (3.5 μg/ml) or proteasomal inhibitors lactacystin (50 μM) and MG132 (50 μM) or without drug (control) and stained for immunofluorescence microscopy. Nuclei were stained with propidium iodide.
Cells were treated with lysosomal inhibitors pepstatin-A and leupeptin as described in FIG. 5B. Extope-ΔF508 CFTR was labeled with 16B12 at the cell surface and detected 7 hours later using goat anti-mouse IgG Alexa Fluor 488 conjugate. Lysosomes were labeled with Lysotracker Red (Molecular Probes).

[1] = test system: Extope-CFTR and ΔF508 CFTR; test: Chemiluminescence assay of cell surface Extope-CFTR and ΔF508 CFTR retained after reincubation; settings: lactacystin 25 μM, reincubated for indicated times, 8 replicates
Protocol: FIG. 10D. […] Extope-CFTR and ΔF508 CFTR were labeled on intact pre-cooled cells on ice for 30 minutes with 16B12 mAb and cells were reincubated in the presence or absence of lactacystin (25 μM) for indicated times. Cell surface Extope-CFTR was detected in a chemiluminescence assay at indicated times using sheep anti-mouse peroxidase conjugate and chemiluminescence. Each experiment was performed with 8 replicates and standard deviations are indicated.

XT-ΔF508 CFTR = test: cyclic AMP stimulated 36Cl efflux (CFTR chloride channel activity); settings: grown at 28° C. with 2 mM sodium butyrate for 48 h; forskolin (10 μM) and IBMX (1 mM)
Protocol: FIG. 5. CFTR chloride channel activity as monitored by ^36Cl efflux from cells expressing wild-type CFTR (◯), ΔF508 CFTR without (♦) or with (▴) 2 mM sodium butyrate or no CFTR (□). Cells were preloaded with ^36Cl and then exposed to forskolin (10 μM) and IBMX (1 mM) at time 0. The amounts of ^36Cl radioactivity released from the cells in subsequent 1 min intervals was monitored by scintillation counting.
To determine the functional capability of the EL2 modified variants, rates of cyclic AMP stimulated ^36Cl efflux from cells expressing them were measured. The rate of efflux from cells expressing wild-type XT-CFTR was similar to that with unmodified wild-type (FIG. 5).

[2] = test system: ΔF508 CFTR with modified EL2 (XT-ΔF508); test: Quantitative luminescence detection of XT-ΔF508 CFTR at surface of cells in 96 well microtiter plates
Protocol: FIG. 6. Quantitative detection of CFTR with EL2 epitope (XT-CFTR) at surface of cells grown in 96 well microtiter plates. Cells were washed, fixed and exposed to an antibody recognizing the external epitope, washed again and incubated with a horseradish peroxidase coupled second antibody and then with a peroxidase substrate that becomes luminescent after peroxidation. Luminescent signals in each well were quantitated in either a Packard Microplate Luminescence Counter or a Perkin Elmer VICTOR^2 Multilabel Counter. […] The corresponding quantitative signals are shown below.
To provide a more facile and quantifiable means of detecting EL2 modified CFTR on the cell surface, cells were plated on 96-well microtiter plates. The amount of surface epitope was measured either by luminometry or time resolved fluorescence. After incubation with a primary unlabeled mouse antibody to the epitope (HA11, Babco) and washing, a secondary horseradish peroxidase coupled antibody recognizing mouse IgG was added followed by peroxidase substrate that luminesces when peroxidized. Luminescence was measured in each well in one of two different luminescence plate readers. A strong signal is obtained in the replicate row of wild-type XT-CFTR expressing cells and signals of strengthening intensity are obtained in rows of XT-ΔF508 cells grown at 28° C. with increasing concentrations of butyrate.

Q: Which “endocytic turn over of ΔF508-CFTR” value (Extope-ΔF508 CFTR; 3.5 μg/ml) does the source give for `CC(C)C[C@H](NC(=O)[C@H]1O[C@@H]1C(=O)O)C(=O)NCCCCN=C(N)N` [E64] here?
A: inhibit endocytic turn over

Q: How did the “endocytic turn over of ΔF508-CFTR” value (Extope-ΔF508 CFTR; 50 μM) turn out when `CC(=O)N[C@@H](CSC(=O)[C@]1([C@@H](O)C(C)C)NC(=O)[C@H](C)[C@@H]1O)C(=O)O` [lactacystin] was run?
A: inhibit endocytic turn over

Q: What about the “amount of CFTR retained at the cellular surface” value [1] of the same compound?
A: increases the amount of CFTR retained at the cellular surface

Q: How did the “36Cl efflux from ΔF508 CFTR expressing cells relative to wild-type” value (XT-ΔF508 CFTR) turn out when `CCCC(=O)[O-].[Na+]` [sodium butyrate] was run?
A: more closely approaches those of wild-type; also recorded: nearly as great as from cells expressing wild-type CFTR

Q: What about the “amount of ΔF508 CFTR with modified EL2 detected at the cell surface (luminescent signal)” value ([2]; cells grown at 28° C. for 24 h, increasing concentrations of sodium butyrate) of the same compound?
A: Increasing amounts

Q: And the “XT-ΔF508 surface luminescence signal relative to wild-type XT-CFTR” value ([2]; cells grown at 28° C., maximal butyrate dose)?
A: more than half that of the wild-type

Q: `CC(C)C[C@@H](C=O)NC(=O)[C@H](CC(C)C)NC(=O)[C@H](CC(C)C)NC(=O)OCc1ccccc1` [MG132] (Cbz-Leu-Leu-Leu-aldehyde) was tested. Which “endocytic turn over of ΔF508-CFTR” value (Extope-ΔF508 CFTR; 50 μM) did it give?
A: inhibit endocytic turn over

From patent US8076101B2, “Method of detecting the cystic fibrosis transmembrane conductance regulator (CFTR) at cell exterior” (priority 2003, dated 2011)
